Source: patent publication US6525001B1, “Substituted pyrimidine and pyridine herbicides” (Mid-American Commercialization Corporation, priority 1997, dated 2003)

Columns and labels:
Format in all cases: in vivo
[1] = tested on: Russian thistle (Salsola kali); test: Test E pre-/postemergence/post directed; conditions: PREEMERGENCE
Procedure, shortened: (§1)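 Greenhouse pot-grown plants; compound in non-phytotoxic solvent with surfactant applied preemergence to soil within one day of planting, postemergence at two to four leaf stage (three to twenty cm), or post-directed to plant base and soil. Visual injury rated 13 to 21 days after application, 0 (none) to 100 (complete control).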

[2] = tested on: barnyardgrass (Echinochloa crus-galli); test: Test E pre-/postemergence/post directed; set-up: key: 0 is no injury; 100 is complete control; conditions: PREEMERGENCE
Procedure, shortened: as §1

[3] = tested on: wild buckwheat (Polygonum convolvulus); test: Test D; set-up: key: 0 is no effect; 10 is complete control; conditions: PREEMERGENCE, Rate 62 g/ha
[4] = tested on: downy brome (Bromus tectorum); test: Test D; set-up: key: 0 is no effect; 10 is complete control; conditions: PREEMERGENCE, Rate 62 g/ha
[5] = tested on: pitted morningglory (Ipomoea lacunosa); test: Test E pre-/postemergence/post directed; set-up: key: 0 is no injury; 100 is complete control; conditions: PREEMERGENCE
Procedure, shortened: as §1

[6] = tested on: common ragweed (Ambrosia elatior); test: Test E pre-/postemergence/post directed; set-up: key: 0 is no injury; 100 is complete control; conditions: PREEMERGENCE, Rate 32 g/ha
Procedure, shortened: as §1

[7] = tested on: barnyardgrass (Echinochloa crus-galli); test: Test E pre-/postemergence/post directed; set-up: key: 0 is no effect; 100 is complete control; conditions: PREEMERGENCE
Procedure, shortened: as §1

## Cc1cnc(-c2ccc(C(F)(F)F)cc2)nc1Cc1cccc(OC(F)(F)F)c1 [Compound 15]
[1]; Rate 32 g/ha
  Plant response rating, Russian thistle: 70
[1]; Rate 64 g/ha
  Plant response rating, Russian thistle: 90
[1]; Rate 125 g/ha
  Plant response rating, Russian thistle: 95
[1]; Rate 250 g/ha
  Plant response rating, Russian thistle: 95
[2]; Rate 32 g/ha
  Plant response rating, Barnyardgrass: 0
[2]; Rate 64 g/ha
  Plant response rating, Barnyardgrass: 0

## CCc1cnc(-c2ccc(C(F)(F)F)cc2)nc1Cc1cccc(C(F)(F)F)c1 [Compound 22]
[3]
  Plant response rating, Wild buckwheat: 0
[4]
  Plant response rating, Downy brome: 0

## COc1cnc(-c2ccc(C(F)(F)F)cc2)nc1Cc1cccc(C(F)(F)F)c1 [Compound 23]
[5]; Rate 32 g/ha
  Plant response rating, P. morninglory: 0
[5]; Rate 64 g/ha
  Plant response rating, P. morninglory: 0

## CCc1cnc(-n2ccc(C(F)(F)F)n2)nc1Cc1cccc(C(F)(F)F)c1 [Compound 46]
[6]
  Plant response rating, Com. ragweed: 0

## Cc1cnc(-n2ccc(C(F)(F)F)n2)nc1Cc1cccc(C(F)(F)F)c1 [Example 2, 5-methyl-4-[[3-(trifluoromethyl)phenyl]methyl]-2-[3-(trifluoromethyl)-1H-pyrazol-1-yl]pyrimidine]
[7]; Rate 125 g/ha
  Plant response rating, Barnyardgrass: 100
[7]; Rate 250 g/ha
  Plant response rating, Barnyardgrass: 100
